Test results reported in US10183971B2, “SAA-domain-specific antibodies and peptide antagonists and use thereof to treat inflammatory diseases” (The Feinstein Institute For Medical Research, priority 2013, dated 2019).
“Also recorded” adds a separate entry of the source.

How the values were obtained:
HMGB1 release = HMGB1 release in vitro by inflammatory mediators (data not shown); type: cell-based
SAA = experiment: SAA-induced HMGB1 release in macrophages (Western blotting); type: cell-based; settings: in vitro
Method: FIG. 5A-5C. Epitope mapping of SAA-specific antibodies using a peptide library. A, Sequence of synthetic SAA peptides (SEQ ID NO:19). […] Macrophages were stimulated with SAA in the absence or presence of different (R1, R2, R3) IgGs, and HMGB1 release was assayed by Western blotting. C, Epitope mapping by dot blot. Note that all rabbit IgGs capable of protecting against lethal endotoxemia cross-reacted with P8 peptide.
Epitope mapping of SAA-neutralizing antibodies. To test the possibility that antibodies or peptides antagonists targeting different SAA domains may divergently affect the outcomes of LSI, SAA-specific antibodies were generated, and the epitopes of these polyclonal IgGs determined using a peptide library (18-mer offset by 6) spanning the entire SAA protein (FIG. 5A). […] Following repetitive immunizations, the titers of anti-SAA IgGs were dramatically elevated in most rabbits (e.g., R1 and R3).

Substance	induction of HMGB1 release in vitro (HMGB1 release)	effect of pre-incubation with peptide on anti-SAA-IgG-mediated inhibition of SAA-induced HMGB1 release (SAA)	inhibition of SAA-induced HMGB1 release (SAA)
EGF: cytoprotective peptide (NSDSECPLSHDGYCLHDGVCMYIEALDKYACNCVVGYIGERCQYRDLKWWELR; Epidermal growth factor; UniProt P01133 971-1023, looked up)	unable to induce HMGB1 release	–	–
IL-6: inflammatory mediator, sepsis surrogate marker	unable to induce HMGB1 release	–	–
IL-8: inflammatory mediator, sepsis surrogate marker	unable to induce HMGB1 release	–	–
REANYIGSDKYFHARGNY (listed as Homo sapiens) [Clone P8, SAA peptide (18-mer) corresponding to residues 25-42]	–	impaired	dose-dependently inhibited
RSFFSFLGEAFDGARDMW (listed as Homo sapiens) [Clone P4, SAA peptide corresponding to residues 1-18]	–	–	dose-dependently inhibited; also recorded: inhibited SAA-induced HMGB1 release
